{"source": "patent US9243037B2", "about": "“Gramicidin a mutants that function as antibiotics with improved solubility and reduced toxicity” (Trustees of Boston College, priority 2011, dated 2016)", "key": {"[1]": {"tested_on": "human red blood cells (hRBCs)", "test": "Haemoglobin release from human red blood cells", "format": "cell-based", "method_in_brief": "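Washed fresh human RBCs at 1% (v/v) in PBS were incubated with 2-fold serial peptide dilutions (DMSO vehicle) for 1 h at 37 °C, then centrifuged. Haemoglobin in the supernatant was read at 415 nm. % hemolysis was taken relative to DMSO blank and 1% Triton X-100 complete lysis.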"}, "physchem": {"test": "physchem", "format": "physicochemical", "method_in_brief": "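Peptide DMSO stock (6.0-8.0 mM) diluted 100-fold into 10 mM HEPES, pH 7.0, giving 1% DMSO; sonicated 30 min, centrifuged 14,000 rpm for 10 min. Supernatant concentration determined from tryptophan absorbance at 280 nm (ε=22760 M−1 cm-1).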"}, "[2]": {"tested_on": "Bacillus subtilis (ATCC 663)"}, "[3]": {"tested_on": "Staphylococcus aureus (ATCC 6538)"}, "[4]": {"tested_on": "Streptococcus pyogenes (ATCC 19615)"}, "FIG. 2": {"test": "FIG. 2", "method": "Table printed on a drawing sheet, FIG. 2\nWater solubility of gA variants is determined by Trp absorbance at 280 nm and summarized in the inserted table. Buffer used: 10 mM HEPES containing 1% DMSO. The solubility of gA-WT was obtained from reference.\nFirst reader's note: Saturation concentration (water solubility); the gA-WT cell carries its own unit (nM), and the marker [a] is not explained on the sheet."}, "bacteria": {"tested_on": "bacteria", "test": "Antibacterial activity, strain not singled out", "settings": "in words", "experimental": "Minimal Inhibitory Concentrations (MICs) were measured against Gram-negative Escherichia coli (BL21) and Gram-positive Bacillus subtilis (ATCC 663), Staphylococcus aureus (ATCC 6538), Streptococcus pyogenes (ATCC 19615) using the broth microdilution method.[2] Specifically, bacteria from a single colony were grown overnight in LB broth at 37° C. with agitation. An aliquot was taken and diluted (1:50 for E. coli, 1:20 for B. subtilis, 1:200 for S. aureus, 1: 10 for S. pyogenes) in fresh broth and cultured for another ˜3 hours until the cells reach mid-logarithmic phase (OD590-0.6). The cells were diluted to a concentration of ˜5×10^5 Colony Forming Units/ml (CFU/ml) and the bacteria suspension (200 μL) was added to each well of a sterile 96-well plate. Serial diluted (2-fold) peptides in DMSO (2 μL) were added in triplicates. The plates were shaken for 30 seconds to mix the peptide solution well with the broth, and then incubated at 37° C. overnight before the absorbance at 590 nm was monitored using a microtiter plate reader (SPECTRAMAX M5, Molecular Devices, Sunnyvale, Calif.). The viability of the bacteria was normalized as % survival=(ODpep,bac−ODbroth only)/(ODDMSO, bac-ODbroth only)×100%."}}, "note": "Marks after values point to notes of the source that are not given here.", "data": [{"smiles": "CC(C)C[C@@H](NC(=O)[C@H](C)NC(=O)CNC(=O)[C@@H](NC=O)C(C)C)C(=O)N[C@@H](C)C(=O)N[C@@H](C(=O)N[C@H](C(=O)N[C@@H](C(=O)N[C@@H](Cc1c[nH]c2ccccc12)C(=O)N[C@H](CCCNC(=N)N)C(=O)N[C@@H](Cc1c[nH]c2ccccc12)C(=O)N[C@H](CCCNC(=N)N)C(=O)N[C@@H](Cc1c[nH]c2ccccc12)C(=O)N[C@H](CCCNC(=N)N)C(=O)N[C@@H](Cc1c[nH]c2ccccc12)C(=O)NCCO)C(C)C)C(C)C)C(C)C", "note": "(racemic) [gA-6, formyl-V-G-A-dL-A-dV-V-dV-W-dR-W-dR-W-dR-W-NHCH2CH2OH]", "values": [{"measurement": "HC50 (50% haemoglobin leakage relative to 1% TritonX-100)", "setting": "[1]", "value": 20, "unit": "µM"}, {"measurement": "water solubility, fold higher than wild-type Gramicidin A", "setting": "physchem", "value": "~800", "unit": "fold"}, {"measurement": "MICs B. Subtilius", "setting": "[2]; ATCC 663", "value": "2.5~5 μM"}, {"measurement": "MIC relative to wild-type Gramicidin A", "setting": "[2]; B. subtilis", "value": "equivalent to or ˜2-fold higher"}, {"measurement": "MIC relative to wild-type Gramicidin A", "setting": "[3]; S. Aureus", "value": "much higher MIC"}, {"measurement": "MICs S. Aureus", "setting": "[3]; Table 2, standard micro-dilution", "value": ">10 ^[e] μM"}, {"measurement": "MICs S. Pyogenes", "setting": "[4]; ATCC 19615", "value": 1.25, "unit": "µM"}, {"measurement": "MIC relative to wild-type Gramicidin A", "setting": "[4]; S. Pyogenes", "value": "equivalent to or ˜2-fold higher"}, {"measurement": "SAT. CONC/μM", "setting": "FIG. 2", "value": 43, "unit": "µM"}, {"measurement": "antibacterial activity / MIC", "setting": "bacteria", "value": "low μM potency"}]}]}
